Results: patent US8946270B2, “Amido-pyridyl ether compounds and compositions and their use against parasites” (Merial Limited, priority 2011, dated 2015)
Where two headings read alike, the source gives them in different places.

Key:
Haematobia irritans = assay: whole plant or invertebrate; conditions: 5 μg/cm^2; for mortality at 5 µg/cm2: Haematobia irritans, read-out: Contact SP Horn Fly PCT Mortality (%)
Protocol: (§1) A solution of the test compound was used to treat a filter paper contained within a Petri dish and the filter paper was allowed to evaporate to dryness. A small piece of absorbent cotton moistened with 10% sucrose and ten adult flies (Haematobia irritans or Stomoxys calcitrans) were added to each dish. Dishes were capped and held at room temperature. Assessments were performed at 4 and 24 hours after infestation in comparison with untreated controls.

Stomoxys calcitrans = assay: whole plant or invertebrate; conditions: 5 μg/cm^2; for mortality at 5 µg/cm2: Stomoxys calcitrans, read-out: Contact SP Stable Fly PCT Mortality
Protocol: as §1

[1] = tested on: Rhipicephalus sanguineus (Brown Dog Tick); assay: whole plant or invertebrate; conditions: for mortality at 200 ppm: Rhipicephalus sanguineus, read-out: Contact SP Rhicicep PCT Mortality (%); for Contact SP Rhicicep PCT Mortality (%): 200 ppm
Source text: A solution of the test compound was used to coat the inner wall of glass vials and to treat two filter papers. Once dried, one filter paper was placed in the cap of the vial and the other in the bottom of the vial. Each treated vial was infested with 10 adult Rhipicephalus sanguineus (Brown Dog Tick). […]

[2] = tested on: Haemonchus contortus larvae; assay: Activity against H. contortus, larval development L1 to L3 (LDA); conditions: 5 ppm; 4 days
Protocol: Twenty L1 Haemonchus contortus larvae were added to wells of a microtitre plate containing a nutrient medium and the test compound in DMSO. The microtitre plate was then held at 27° C. where the L1 larvae were allowed to develop. […] Larvae exposed to DMSO and no test compound served as controls

[3] = tested on: microfilaria of Dirofilaria immitis; assay: Activity against D. immitis microfilaria (Mf); conditions: 5 ppm; 5 days
Protocol: Four hundred to six hundred microfilaria of Dirofilaria immitis were added to wells of a microtitre plate containing RPMI media and the test compound in DMSO. The microtitre plate was then held at 37° C. in an environment containing 5% CO2. An assessment was conducted at 5 days to determine survival of the microfilaria. Microfilaria exposed to DMSO and no test compound served as controls.

Ctenocephalides felis = assay: whole plant or invertebrate; conditions: 72 hr; for mortality at 200 ppm: Ctenocephalides felis, read-out: Assay: Minilnge Organism: C. felis Test Parameter: PCT Mortal; for Assay: Minilnge Organism: C. felis Test Parameter: PCT Mortal: Dose: 200 ppm

SMILES: CC(C)CNC(=O)c1ccc(COc2cccc(C(F)(F)F)c2)cn1 [Compound 5]
- mortality at 5 µg/cm2 (Haematobia irritans; timepoint 4 hrs): 100%
- mortality at 5 µg/cm2 (Haematobia irritans; timepoint 24 hrs): 100%
- mortality at 5 µg/cm2 (Stomoxys calcitrans; 4 hrs): 70%
- mortality at 5 µg/cm2 (Stomoxys calcitrans; 24 hrs): 90%
- mortality at 200 ppm ([1]; timepoint 4 hrs): 50%
- mortality at 200 ppm ([1]; timepoint 24 hrs): 80%

SMILES: CC(C)CNC(=O)c1ccc(CCOc2cccc(OC(F)(F)F)c2)cn1 [Compound 12]
- mortality at 5 µg/cm2 (Haematobia irritans; timepoint 4 hrs): 80%
- mortality at 5 µg/cm2 (Haematobia irritans; timepoint 24 hrs): 100%
- mortality at 5 µg/cm2 (Stomoxys calcitrans; 4 hrs): 50%
- mortality at 5 µg/cm2 (Stomoxys calcitrans; 24 hrs): 90%

SMILES: CC(C)CNC(=O)c1ccc(CCOc2ccc(OC(F)(F)F)cc2)cn1 [Compound 13]
- mortality at 5 µg/cm2 (Haematobia irritans; timepoint 4 hrs): 60%
- mortality at 5 µg/cm2 (Haematobia irritans; timepoint 24 hrs): 70%
- LDA SP H. cont. PCT Mot M [2]: 95%

SMILES: O=C(NCC1CCOCC1)c1ccc(CCOc2ccc(OC(F)(F)F)cc2)cn1 [Compound 14]
- mortality at 5 µg/cm2 (Haematobia irritans; timepoint 4 hrs): 80%
- mortality at 5 µg/cm2 (Haematobia irritans; timepoint 24 hrs): 100%
- Mf sp D. immitis PCT Motili [3]: 88%
- LDA SP H. cont. PCT Mot M [2]: 100%

SMILES: O=C(NCC1CCOCC1)c1ccc(COc2ccc(OC(F)(F)F)cc2)cn1 [Compound 24]
- mortality at 200 ppm (Ctenocephalides felis): 0%
- mortality at 5 µg/cm2 (Haematobia irritans; timepoint 4 hrs): 50%
- mortality at 5 µg/cm2 (Haematobia irritans; timepoint 24 hrs): 70%
- mortality at 200 ppm ([1]; timepoint 4 hrs): 0%
- mortality at 200 ppm ([1]; timepoint 24 hrs): 0%

SMILES: O=C(NCC1CC1)c1ccc(COc2ccc(OC(F)(F)F)cc2)cn1 [Compound 33]
- mortality at 5 µg/cm2 (Haematobia irritans; timepoint 4 hrs): 100%
- mortality at 5 µg/cm2 (Haematobia irritans; timepoint 24 hrs): 100%
- mortality at 5 µg/cm2 (Stomoxys calcitrans; 4 hrs): 80%
- mortality at 5 µg/cm2 (Stomoxys calcitrans; 24 hrs): 80%
- mortality at 200 ppm ([1]; timepoint 4 hrs): 100%
- mortality at 200 ppm ([1]; timepoint 24 hrs): 100%

SMILES: COC(CNC(=O)c1ccc(COc2cccc(OC(F)(F)F)c2)cn1)OC [Compound 44]
- mortality at 5 µg/cm2 (Haematobia irritans; timepoint 4 hrs): 80%
- mortality at 5 µg/cm2 (Haematobia irritans; timepoint 24 hrs): 80%
- mortality at 200 ppm ([1]; timepoint 4 hrs): 100%
- mortality at 200 ppm ([1]; timepoint 24 hrs): 100%

SMILES: O=C(NCC1CC1)c1ccc(COc2cccc(OC(F)(F)F)c2)cn1 [Compound 52]
- Contact SP Horn Fly PCT Mortality (%) (Haematobia irritans; timepoint 4 hrs): 80%
- Contact SP Horn Fly PCT Mortality (%) (Haematobia irritans; timepoint 24 hrs): 80%
- Contact SP Stable Fly PCT Mortality (Stomoxys calcitrans; 4 hrs): 60%
- Contact SP Stable Fly PCT Mortality (Stomoxys calcitrans; 24 hrs): 80%

SMILES: CC(C)CNC(=O)c1ccc(COc2cccc(OC(F)(F)F)c2)cn1 [Compound 54]
- mortality at 5 µg/cm2 (Haematobia irritans; timepoint 4 hrs): 100%
- mortality at 5 µg/cm2 (Haematobia irritans; timepoint 24 hrs): 100%
- mortality at 200 ppm ([1]; timepoint 4 hrs): 0%
- mortality at 200 ppm ([1]; timepoint 24 hrs): 100%

SMILES: Cc1cccc(OCc2ccc(C(=O)NCC(C)C)nc2)c1 [Compound 63]
- Contact SP Horn Fly PCT Mortality (%) (Haematobia irritans; timepoint 4 hrs): 100%
- Contact SP Horn Fly PCT Mortality (%) (Haematobia irritans; timepoint 24 hrs): 100%
- Contact SP Stable Fly PCT Mortality (Stomoxys calcitrans; 4 hrs): 80%
- Contact SP Stable Fly PCT Mortality (Stomoxys calcitrans; 24 hrs): 80%
- Contact SP Rhicicep PCT Mortality (%) ([1]; timepoint 4 hrs): 100%
- Contact SP Rhicicep PCT Mortality (%) ([1]; timepoint 24 hrs): 100%

SMILES: CCc1cccc(OCc2ccc(C(=O)NCC(OC)OC)nc2)c1 [Compound 65]
- mortality at 5 µg/cm2 (Stomoxys calcitrans; 4 hrs): 50%
- mortality at 5 µg/cm2 (Stomoxys calcitrans; 24 hrs): 60%
- mortality at 200 ppm ([1]; timepoint 4 hrs): 80%
- mortality at 200 ppm ([1]; timepoint 24 hrs): 100%

SMILES: C=C(C)CNC(=O)c1ccc(COc2cccc(CC)c2)cn1 [Compound 76]
- mortality at 5 µg/cm2 (Haematobia irritans; timepoint 4 hrs): 0%
- mortality at 5 µg/cm2 (Haematobia irritans; timepoint 24 hrs): 0%
- mortality at 200 ppm ([1]; timepoint 4 hrs): 80%
- mortality at 200 ppm ([1]; timepoint 24 hrs): 100%

SMILES: CCc1cccc(OCc2ccc(C(=O)NCC(C)C)nc2)c1 [Compound 77]
- mortality at 5 µg/cm2 (Haematobia irritans; timepoint 4 hrs): 100%
- mortality at 5 µg/cm2 (Haematobia irritans; timepoint 24 hrs): 100%
- mortality at 5 µg/cm2 (Stomoxys calcitrans; 4 hrs): 60%
- mortality at 5 µg/cm2 (Stomoxys calcitrans; 24 hrs): 80%
- mortality at 200 ppm ([1]; timepoint 4 hrs): 100%
- mortality at 200 ppm ([1]; timepoint 24 hrs): 100%

SMILES: COC(CNC(=O)c1ccc(COc2cc(F)cc(Br)c2)cn1)OC [Compound 107]
- mortality at 200 ppm (Ctenocephalides felis): 90%
- mortality at 5 µg/cm2 (Haematobia irritans; timepoint 4 hrs): 0%
- mortality at 5 µg/cm2 (Haematobia irritans; timepoint 24 hrs): 0%
- mortality at 200 ppm ([1]; timepoint 4 hrs): 0%
- mortality at 200 ppm ([1]; timepoint 24 hrs): 70%

SMILES: N#CCCNC(=O)c1ccc(COc2cc(F)cc(Br)c2)cn1 [Compound 108]
- mortality at 5 µg/cm2 (Haematobia irritans; timepoint 4 hrs): 100%
- mortality at 5 µg/cm2 (Haematobia irritans; timepoint 24 hrs): 100%
- mortality at 5 µg/cm2 (Stomoxys calcitrans; 4 hrs): 0%
- mortality at 5 µg/cm2 (Stomoxys calcitrans; 24 hrs): 0%
- mortality at 200 ppm ([1]; timepoint 4 hrs): 70%
- mortality at 200 ppm ([1]; timepoint 24 hrs): 70%

SMILES: O=C(NCC1CC1)c1ccc(COc2cc(F)cc(Br)c2)cn1 [Compound 119]
- Contact SP Horn Fly PCT Mortality (%) (Haematobia irritans; timepoint 4 hrs): 80%
- Contact SP Horn Fly PCT Mortality (%) (Haematobia irritans; timepoint 24 hrs): 100%
- Contact SP Stable Fly PCT Mortality (Stomoxys calcitrans; 4 hrs): 60%
- Contact SP Stable Fly PCT Mortality (Stomoxys calcitrans; 24 hrs): 70%

SMILES: O=C(NC1CCC1)c1ccc(COc2cc(F)cc(Br)c2)cn1 [Compound 122]
- Contact SP Horn Fly PCT Mortality (%) (Haematobia irritans; timepoint 4 hrs): 0%
- Contact SP Horn Fly PCT Mortality (%) (Haematobia irritans; timepoint 24 hrs): 0%
- Contact SP Rhicicep PCT Mortality (%) ([1]; timepoint 4 hrs): 0%
- Contact SP Rhicicep PCT Mortality (%) ([1]; timepoint 24 hrs): 80%

SMILES: CN(C)CC(C)(C)CNC(=O)c1ccc(COc2cc(F)cc(Br)c2)cn1 [Compound 124]
- mortality at 5 µg/cm2 (Haematobia irritans; timepoint 4 hrs): 100%
- mortality at 5 µg/cm2 (Haematobia irritans; timepoint 24 hrs): 100%
- mortality at 200 ppm ([1]; timepoint 4 hrs): 70%
- mortality at 200 ppm ([1]; timepoint 24 hrs): 70%

SMILES: CCCCNC(=O)c1ccc(COc2cc(F)cc(Br)c2)cn1 [Compound 127]
- mortality at 5 µg/cm2 (Haematobia irritans; timepoint 4 hrs): 70%
- mortality at 5 µg/cm2 (Haematobia irritans; timepoint 24 hrs): 70%
- mortality at 200 ppm ([1]; timepoint 4 hrs): 90%
- mortality at 200 ppm ([1]; timepoint 24 hrs): 100%

SMILES: CC(C)CNC(=O)c1ccc(OCc2ccc(OC(F)(F)F)cc2)cn1 [Compound 136]
- LDA SP H. cont. PCT Mot M [2]: 89.2655%

SMILES: O=C(NCC1CC1)c1ccc(COc2cccc(-c3cccc(F)c3)c2)cn1 [Compound 176]
- Assay: Minilnge Organism: C. felis Test Parameter: PCT Mortal (Ctenocephalides felis): 70%
- Contact SP Rhicicep PCT Mortality (%) ([1]; timepoint 4 hrs): 90%
- Contact SP Rhicicep PCT Mortality (%) ([1]; timepoint 24 hrs): 100%

SMILES: CCCNC(=O)c1ccc(COc2cccc(-c3cccc(F)c3)c2)cn1 [Compound 177]
- Assay: Minilnge Organism: C. felis Test Parameter: PCT Mortal (Ctenocephalides felis): 40%
- Contact SP Rhicicep PCT Mortality (%) ([1]; timepoint 4 hrs): 80%
- Contact SP Rhicicep PCT Mortality (%) ([1]; timepoint 24 hrs): 90%

SMILES: C=C(C)CNC(=O)c1ccc(COc2cccc(-c3cccc(F)c3)c2)cn1 [Compound 179]
- Assay: Minilnge Organism: C. felis Test Parameter: PCT Mortal (Ctenocephalides felis): 70%
- Contact SP Rhicicep PCT Mortality (%) ([1]; timepoint 4 hrs): 100%
- Contact SP Rhicicep PCT Mortality (%) ([1]; timepoint 24 hrs): 100%

SMILES: COC(CNC(=O)c1ccc(COc2cccc(-c3ccccc3)c2)cn1)OC [Compound 185]
- Assay: Minilnge Organism: C. felis Test Parameter: PCT Mortal (Ctenocephalides felis): 90%

SMILES: C=C(C)CNC(=O)c1ccc(COc2cccc(-c3ccccc3)c2)cn1 [Compound 197]
- Assay: Minilnge Organism: C. felis Test Parameter: PCT Mortal (Ctenocephalides felis): 90%

SMILES: CC(C)CNC(=O)c1ccc(COc2cccc(-c3ccccc3)c2)cn1 [Compound 198]
- Assay: Minilnge Organism: C. felis Test Parameter: PCT Mortal (Ctenocephalides felis): 90%
- Contact SP Rhicicep PCT Mortality (%) ([1]; timepoint 4 hrs): 100%
- Contact SP Rhicicep PCT Mortality (%) ([1]; timepoint 24 hrs): 100%

SMILES: CC(C)CNC(=O)c1ccc(CCOc2ccc(C(F)(F)F)cc2)cn1 [Compound 206]
- mortality at 200 ppm ([1]; timepoint 4 hrs): 100%
- mortality at 200 ppm ([1]; timepoint 24 hrs): 100%
- LDA SP H. cont. PCT Mot M [2]: 100%

SMILES: O=C(NCC1CC1)c1ccc(CCOc2ccc(C(F)(F)F)cc2)cn1 [Compound 207]
- Contact SP Horn Fly PCT Mortality (%) (Haematobia irritans; timepoint 4 hrs): 80%
- Contact SP Horn Fly PCT Mortality (%) (Haematobia irritans; timepoint 24 hrs): 80%
- LDA SP H. cont. PCT Mot M [2]: 100%

SMILES: CCC(C)CNC(=O)c1ccc(CCOc2ccc(C(F)(F)F)cc2)cn1 (stereo not shown) [Compound 219]
- mortality at 200 ppm ([1]; timepoint 4 hrs): 80%
- mortality at 200 ppm ([1]; timepoint 24 hrs): 90%
- LDA SP H. cont. PCT Mot M [2]: 90%

SMILES: CC(C)CNC(=O)c1ccc(CCOc2ccc(Cl)c(OC(F)(F)F)c2)cn1 [Compound 223]
- Contact SP Rhicicep PCT Mortality (%) ([1]; timepoint 4 hrs): 0%
- Contact SP Rhicicep PCT Mortality (%) ([1]; timepoint 24 hrs): 0%
- LDA SP H. cont. PCT Mot M [2]: 91%

SMILES: CC(C)CNC(=O)c1ccc(CCOc2ccc(F)c(F)c2)cn1 [Compound 224]
- LDA SP H. cont. PCT Mot M [2]: 98%

SMILES: O=C(NCC1CC1)c1ccc(CCOc2cccc(OC(F)(F)F)c2)cn1 [Compound 243]
- mortality at 200 ppm (Ctenocephalides felis): 80%
- mortality at 200 ppm ([1]; timepoint 4 hrs): 100%
- mortality at 200 ppm ([1]; timepoint 24 hrs): 100%
